Assays:
[1] = system: HEK293 cells; test: Toxicity to HEK293 cells (MTT); assay type: cell-based; conditions: for 100 μM absorbance / 100 μM relative viability: HEK293, 100 μM; for 100 μM absorbance / 100 μM relative viability / 500 μM absorbance / 500 μM relative viability: 12 hours; for 100 μM absorbance / 500 μM absorbance: 570 nm; for 100 μM relative viability / 500 μM relative viability: control = 1; for 500 μM absorbance / 500 μM relative viability: HEK293, 500 μM
Experimental: 1. HEK293 cells were seeded in 96-well plate at a density of 25,000 cells/well the day before the experiment starts;
(§1) 2. After the cells reach 50˜60% confluency, media was taken out, and 100 μL of fresh media was added to each well;
3. F-derivatives were plated at 100 and 500 μM (in duplicates) concentrations;
(§2) 4. After 12 hours' incubation at 37° C., the media was taken out, 100 μL of fresh media was added to each well along with 20 μL of 5 mg/mL of MTT solution (in PBS);
(§3) 5. After 1.5 hours' incubation at 37° C., media was taken out and 100 μL of DMSO was added to each well, the plate was mixed on shaker for 5 mins;
(§4) Absorbance was measured at 570 nm.
(§5) Assay for Determining Toxicity to HEK293 and Neuro2A Cells • 1. HEK293 and Neuro2A cells were seeded in 96-well plate at a density of 25,000 cells/well the day before the experiment starts; • 2. After the cells reach 50˜60% confluency, media was taken out, and 100 μL of fresh media was added to each well; • 3. Cl-derivatives were plated at 100 and 500 μM (in duplicates) concentrations; • 4. After 12 hours' incubation at 37° C., the media was taken out, 100 μL of fresh media was added to each well along with 20 μL of 5 mg/mL of MTT solution (in PBS); • 5. After 2 hours' incubation at 37° C., media was taken out and 100 μL of DMSO was added to each well, the plate was mixed on shaker for 5 mins; • 6. Absorbance was measured at 570 nm.

[2] = system: Neuro2A cells; test: Toxicity to Neuro2A cells (MTT); assay type: cell-based; conditions: for 100 μM absorbance / 100 μM relative viability / 500 μM absorbance / 500 μM relative viability: 12 hours; for 100 μM absorbance / 500 μM absorbance: 570 nm
Experimental: 6. Neuro2A cells were seeded in 96-well plate at a density of 25,000 cells/well the day before the experiment starts;
7. After the cells reach 50˜60% confluency, media was taken out, and 100 μL of fresh media was added to each well;
8. […]
9. After 12 hours' incubation at 37° C., the media was taken out, 100 μL of fresh media was added to each well along with 20 μL of 5 mg/mL of MTT solution (in PBS);
10. After 1.5 hours' incubation at 37° C., media was taken out and 100 μL of DMSO was added to each well, the plate was mixed on shaker for 5 mins;
as §4
as §5, with “Cl-derivatives were plated at 100 and 500 μM (in duplicates) concentrations; • 4.” left out

[3] = molecular target: T1, CD38 (Homo sapiens, UniProt P28907); test: CD38 activity assay (NGD+ turnover, 295 nm absorbance); assay type: biochemical
T1 sequence (P28907 1-300): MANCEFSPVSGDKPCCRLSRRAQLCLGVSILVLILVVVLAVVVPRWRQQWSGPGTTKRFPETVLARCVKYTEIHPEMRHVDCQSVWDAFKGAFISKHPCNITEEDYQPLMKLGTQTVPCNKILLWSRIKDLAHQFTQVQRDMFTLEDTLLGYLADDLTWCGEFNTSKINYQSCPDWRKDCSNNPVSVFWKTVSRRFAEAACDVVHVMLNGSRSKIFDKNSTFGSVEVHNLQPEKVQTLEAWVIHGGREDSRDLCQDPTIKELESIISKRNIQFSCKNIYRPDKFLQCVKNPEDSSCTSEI
Experimental: (§6) CD38 (500 nM) in 100 mM phosphate buffer at pH 7.5 was incubated with various concentrations of 2′-deoxy-2′-fluoro-nucleosides and nucleotides for 30 mins at room temperature. 35 μL of the enzyme inhibitor solution was added to a cuvette containing 1 mL of 100 mM phosphate buffer at pH 7.5, containing 200 μM NGD^+. Reaction progress upon initiation by enzyme addition was monitored by 295 nm absorbance.
as §6, with “CD38 Activity Assay: CD38” for “CD38”, “2′-deoxy-2′-chloro-nucleosides were” for “2′-deoxy-2′-fluoro-nucleosides and nucleotides”

[4] = system: HEK293 cells; test: Ribo-F-NR dose response in HEK293 cells (MTT); assay type: cell-based; conditions: 12 hours; for absorbance: 570 nm
Experimental: 1. HEK293 cells were seeded in 96-well plate at a density of 10,000 cells/well the day before the experiment starts;
as §1
3. Ribo-F-NR (stock concentration=5.53 mM) were plated at 11, 22, 27, 44, 55, 83 and 111 μM (in triplicates) concentrations;
as §2, §3
6. Absorbance was measured at 570 nm.

[5] = Homo sapiens, HEK293, HEK293, 2′-deoxy-2′-fluoro-nucleosides and nucleotides
[6] = Mus musculus, N2a, 2′-deoxy-2′-fluoro-nucleosides and nucleotides
[7] = MTT 2 hours, chloro-nucleosides
[8] = control = 1, chloro-nucleosides

| SMILES | 100 μM absorbance ([1]; MTT 1.5 hours) | 100 μM relative viability [1] | 500 μM absorbance ([1]; MTT 1.5 hours) | 500 μM relative viability [1] | EC50 [1, 5] [µM] | 100 μM absorbance ([2]; MTT 1.5 hours) | 100 μM relative viability ([2]; control = 1) | 500 μM absorbance ([2]; MTT 1.5 hours) | 500 μM relative viability ([2]; control = 1) | EC50 [2, 6] [µM] | also measured |
| --- | --- | --- | --- | --- | --- | --- | --- | --- | --- | --- | --- |
| NC(=O)c1ccc[n+]([C@@H]2O[C@H](CO)C(O)C2F)c1 (some centres unmarked) [ara-F-NR, 1-(2′-deoxy-2′-fluoro-arabinofuranosyl)-nicotinamide] | 1.5325 | 0.6741 | 1.25 | 0.5499 | 550 | 2.0227 | 0.831 | 2.0666 | 0.849 | 3840 |  |
| NC(=O)c1ccc[n+]([C@@H]2O[C@H](COP(=O)([O-])O)C(O)C2(F)F)c1 (some centres unmarked) [gem-diF-NMN, 2′-deoxy-2′,2′-difluoro-ribo-nicotinamide mononucleotide] | 1.559 | 0.6858 | 0 | 0 | 118 | 1.0774 | 0.443 | 0.0217 | 0.009 | 64 | CD38 inhibition (in words) ([3]; at 300 μM): inhibited at 300 μM |
| NC(=O)c1ccc[n+]([C@@H]2O[C@H](CO)[C@@H](O)C2(F)F)c1 [gem-diF-NR, 1-(2′-deoxy-2′,2′-difluoro-ribofuranosyl)-nicotinamide] | 1.679 | 0.7386 | 1.43 | 0.6289 | 846 | 0.8234 | 0.338 | 0.5374 | 0.221 | 61 |  |
| NC(=O)c1ccc[n+]([C@@H]2O[C@H](COP(=O)([O-])O)C(O)C2F)c1 (some centres unmarked) [ribo-F-NMN, 2′-deoxy-2′-fluoro-ribo-nicotinamide mononucleotide] | 1.2275 | 0.54 | 0.9845 | 0.4331 |  | 2.2023 | 0.905 | 1.7872 | 0.735 |  | EC50 ([1]; HEK293, 2′-deoxy-2′-fluoro-nucleosides and nucleotides): 241 µM; EC50 ([2]; 2′-deoxy-2′-fluoro-nucleosides and nucleotides): 1400 µM |
| NC(=O)c1ccc[n+]([C@@H]2O[C@H](CO)C(O)[C@@H]2F)c1 (stereo partly drawn) [ribo-F-NR, 1-(2-deoxy-2-fluoro-D-ribofuranosyl)-nicotinamide] | 0.019 | 0.008358 | 0.0015 | 0.00066 | 17 | 1.8769 | 0.771 | 0.8391 | 0.345 | 281 | relative viability ([4]; HEK293, 11 μM): 0.8067; absorbance ([4]; HEK293, 11 μM): 0.1041; relative viability ([4]; HEK293, 22 μM): 0.652; absorbance ([4]; HEK293, 22 μM): 0.08411; relative viability ([4]; HEK293, 27 μM): 0.4806; absorbance ([4]; HEK293, 27 μM): 0.062; relative viability ([4]; HEK293, 44 μM): 0.2539; absorbance ([4]; HEK293, 44 μM): 0.03275; relative viability ([4]; HEK293, 55.3 μM): 0.1163; absorbance ([4]; HEK293, 55.3 μM): 0.015; relative viability ([4]; HEK293, 83 μM): 0.04651; absorbance ([4]; HEK293, 83 μM): 0.006; relative viability ([4]; HEK293, 111 μM): 0.008358; absorbance ([4]; HEK293, 111 μM): 0.001078 |
| NC(=O)c1ccc[n+]([C@@H]2O[C@H](CO)C(O)C2Cl)c1 (stereo partly drawn) [β-ara-Cl-NR, 1-(2′-deoxy-2′-chloro-arabinofuranosyl)-nicotinamide] |  |  |  |  |  |  |  |  |  |  | 100 μM absorbance [1, 7]: 0; 100 μM relative viability ([1]; chloro-nucleosides): 0; 500 μM absorbance [1, 7]: 0; 500 μM relative viability ([1]; chloro-nucleosides): 0; EC50 ([1]; Homo sapiens, HEK293, HEK293, 2′-deoxy-2′-chloro-nucleosides): 5 µM; 100 μM absorbance [2, 7]: 0; 100 μM relative viability [2, 8]: 0; 500 μM absorbance [2, 7]: 0; 500 μM relative viability [2, 8]: 0; EC50 ([2]; Mus musculus, N2a, 2′-deoxy-2′-chloro-nucleosides): 9 µM |
| NC(=O)c1ccc[n+]([C@@H]2O[C@H](CO)C(O)C2(Cl)Cl)c1 (stereo partly drawn) [β-gem-diCl-NR, 1-(2′-deoxy-2′,2′-dichloro-ribofuranosyl)-nicotinamide] |  |  |  |  |  |  |  |  |  |  | inhibition at 500 µM ([3]; at 500 μM, read-out: CD38 % inhibited): 50%; 100 μM absorbance [1, 7]: 2.05; 100 μM relative viability ([1]; chloro-nucleosides): 0.8436; 500 μM absorbance [1, 7]: 1.63; 500 μM relative viability ([1]; chloro-nucleosides): 0.6708; kills % of HEK293 cells ([1]; HEK293, at 500 μM): kills 30% at 500 μM; 100 μM absorbance [2, 7]: 2.615; 100 μM relative viability [2, 8]: 1.106; 500 μM absorbance [2, 7]: 2.63; 500 μM relative viability [2, 8]: 1.112; toxicity to Neuro2A (in words) ([2]; at 500 μM): not toxic at 500 μM |

— patent US9790252B2, “2-fluorinated riboses and arabinoses and methods of use and synthesis” (CORNELL UNIVERSITY, priority 2009, dated 2017)
